Tests used:
Test in all cases: cells
A4-Fuk = assay type: functional, cell-based, Homo sapiens; conditions: Homo sapiens, A4-Fuk
Description: SANGER: Inhibition of human A4-Fuk cell growth in a cell viability assay.

A101D = assay type: functional, cell-based, Homo sapiens; conditions: Homo sapiens, A101D
Description: SANGER: Inhibition of human A101D cell growth in a cell viability assay.

HCC1187 = assay type: functional, cell-based, Homo sapiens; conditions: Homo sapiens, HCC1187
Description: SANGER: Inhibition of human HCC1187 cell growth in a cell viability assay.

COLO-824 = assay type: functional, cell-based, Homo sapiens; conditions: Homo sapiens, COLO-824
Description: SANGER: Inhibition of human COLO-824 cell growth in a cell viability assay.

LS-411N = assay type: functional, cell-based, Homo sapiens; conditions: Homo sapiens, LS-411N
MZ2-MEL = assay type: functional, cell-based, Homo sapiens; conditions: Homo sapiens, MZ2-MEL
Description: SANGER: Inhibition of human MZ2-MEL cell growth in a cell viability assay.

DMS-114 = assay type: functional, cell-based, Homo sapiens; conditions: Homo sapiens, DMS-114
KLE = assay type: functional, cell-based, Homo sapiens; conditions: Homo sapiens, KLE
Description: SANGER: Inhibition of human KLE cell growth in a cell viability assay.

SHP77 = assay type: functional, cell-based, Homo sapiens, SHP-77; conditions: Homo sapiens, SHP77
Description: SANGER: Inhibition of human SHP-77 cell growth in a cell viability assay.

SCH = assay type: functional, cell-based, Homo sapiens; conditions: Homo sapiens, SCH
Description: SANGER: Inhibition of human SCH cell growth in a cell viability assay.

AM-38 = assay type: functional, cell-based, Homo sapiens; conditions: Homo sapiens, AM-38
Description: SANGER: Inhibition of human AM-38 cell growth in a cell viability assay.

UACC-257 = assay type: functional, cell-based, Homo sapiens; conditions: Homo sapiens, UACC-257
Description: SANGER: Inhibition of human UACC-257 cell growth in a cell viability assay.

SH-4 = assay type: functional, cell-based, Homo sapiens; conditions: Homo sapiens, SH-4
Description: SANGER: Inhibition of human SH-4 cell growth in a cell viability assay.

HAL-01 = assay type: functional, cell-based, Homo sapiens; conditions: Homo sapiens, HAL-01
Description: SANGER: Inhibition of human HAL-01 cell growth in a cell viability assay.

NCI-H1770 = assay type: functional, cell-based, Homo sapiens; conditions: Homo sapiens, NCI-H1770
Description: SANGER: Inhibition of human NCI-H1770 cell growth in a cell viability assay.

Mo = assay type: functional, cell-based, Homo sapiens; conditions: Homo sapiens, Mo
Description: SANGER: Inhibition of human Mo-T cell growth in a cell viability assay.

BB49-HNC = assay type: functional, cell-based, Homo sapiens; conditions: Homo sapiens, BB49-HNC
Description: SANGER: Inhibition of human BB49-HNC cell growth in a cell viability assay.

KM-H2 = assay type: functional, cell-based, Homo sapiens; conditions: Homo sapiens, KM-H2
Description: SANGER: Inhibition of human KM-H2 cell growth in a cell viability assay.

NCI-H2126 = assay type: functional, cell-based, Homo sapiens; conditions: Homo sapiens, NCI-H2126
Description: SANGER: Inhibition of human NCI-H2126 cell growth in a cell viability assay.

LOX IMVI = assay type: functional, cell-based, Homo sapiens; conditions: Homo sapiens, LOX IMVI
Description: SANGER: Inhibition of human LOXIMVI cell growth in a cell viability assay.

A3-KAW = assay type: functional, cell-based, Homo sapiens; conditions: Homo sapiens, A3-KAW
Description: SANGER: Inhibition of human A3-KAW cell growth in a cell viability assay.

SK-MEL-2 = assay type: functional, cell-based, Homo sapiens; conditions: Homo sapiens, SK-MEL-2
Description: SANGER: Inhibition of human SK-MEL-2 cell growth in a cell viability assay.

GR-ST = assay type: functional, cell-based, Homo sapiens; conditions: Homo sapiens, GR-ST
Description: SANGER: Inhibition of human GR-ST cell growth in a cell viability assay.

NCI-H1299 = assay type: functional, cell-based, Homo sapiens; conditions: Homo sapiens, NCI-H1299
Description: SANGER: Inhibition of human NCI-H1299 cell growth in a cell viability assay.

MFM-223 = assay type: functional, cell-based, Homo sapiens; conditions: Homo sapiens, MFM-223
Description: SANGER: Inhibition of human MFM-223 cell growth in a cell viability assay.

MFH-ino = assay type: functional, cell-based, Homo sapiens; conditions: Homo sapiens, MFH-ino
Description: SANGER: Inhibition of human MFH-ino cell growth in a cell viability assay.

LB831-BLC = assay type: functional, cell-based, Homo sapiens; conditions: Homo sapiens, LB831-BLC
Description: SANGER: Inhibition of human LB831-BLC cell growth in a cell viability assay.

DJM-1 = assay type: functional, cell-based, Homo sapiens; conditions: Homo sapiens, DJM-1
Description: SANGER: Inhibition of human DJM-1 cell growth in a cell viability assay.

RPMI-8226 = assay type: functional, cell-based, Homo sapiens; conditions: Homo sapiens, RPMI-8226
Description: SANGER: Inhibition of human RPMI-8226 cell growth in a cell viability assay.

SBC-1 = assay type: functional, cell-based, Homo sapiens; conditions: Homo sapiens, SBC-1
Description: SANGER: Inhibition of human SBC-1 cell growth in a cell viability assay.

SJSA-1 = assay type: functional, cell-based, Homo sapiens; conditions: Homo sapiens, SJSA-1
Description: SANGER: Inhibition of human SJSA-1 cell growth in a cell viability assay.

HT = assay type: functional, cell-based, Homo sapiens; conditions: Homo sapiens, HT
Description: SANGER: Inhibition of human HT cell growth in a cell viability assay.

SW 962 = assay type: functional, cell-based, Homo sapiens; conditions: Homo sapiens, SW 962
Description: SANGER: Inhibition of human SW962 cell growth in a cell viability assay.

L-428 = assay type: functional, cell-based, Homo sapiens; conditions: Homo sapiens, L-428
Description: SANGER: Inhibition of human L-428 cell growth in a cell viability assay.

TE-9 = assay type: functional, cell-based, Homo sapiens; conditions: Homo sapiens, TE-9
Description: SANGER: Inhibition of human TE-9 cell growth in a cell viability assay.

HCC2218 = assay type: functional, cell-based, Homo sapiens; conditions: Homo sapiens, HCC2218
Description: SANGER: Inhibition of human HCC2218 cell growth in a cell viability assay.

NB12 = assay type: functional, cell-based, Homo sapiens; conditions: Homo sapiens, NB12
Description: SANGER: Inhibition of human NB12 cell growth in a cell viability assay.

ES4 = assay type: functional, cell-based, Homo sapiens; conditions: Homo sapiens, ES4
Description: SANGER: Inhibition of human ES4 cell growth in a cell viability assay.

ONS-76 = assay type: functional, cell-based, Homo sapiens; conditions: Homo sapiens, ONS-76
Description: SANGER: Inhibition of human ONS-76 cell growth in a cell viability assay.

HCC 2998 = assay type: functional, cell-based, Homo sapiens; conditions: Homo sapiens, HCC 2998
Description: SANGER: Inhibition of human HCC2998 cell growth in a cell viability assay.

NCI-N87 = assay type: functional, cell-based, Homo sapiens; conditions: Homo sapiens, NCI-N87
Description: SANGER: Inhibition of human NCI-N87 cell growth in a cell viability assay.

COR-L88 = assay type: functional, cell-based, Homo sapiens; conditions: Homo sapiens, COR-L88
Description: SANGER: Inhibition of human COR-L88 cell growth in a cell viability assay.

J-RT3-T3-5 = assay type: functional, cell-based, Homo sapiens; conditions: Homo sapiens, J-RT3-T3-5
Description: SANGER: Inhibition of human J-RT3-T3-5 cell growth in a cell viability assay.

SNU1 = assay type: functional, cell-based, Homo sapiens; conditions: Homo sapiens, SNU1
Description: SANGER: Inhibition of human NCI-SNU-1 cell growth in a cell viability assay.

ACN = assay type: functional, cell-based, Homo sapiens; conditions: Homo sapiens, ACN
Description: SANGER: Inhibition of human ACN cell growth in a cell viability assay.

NCI-H1838 = assay type: functional, cell-based, Homo sapiens; conditions: Homo sapiens, NCI-H1838
Description: SANGER: Inhibition of human NCI-H1838 cell growth in a cell viability assay.

HCC2157 = assay type: functional, cell-based, Homo sapiens; conditions: Homo sapiens, HCC2157
Description: SANGER: Inhibition of human HCC2157 cell growth in a cell viability assay.

SK-UT-1 = assay type: functional, cell-based, Homo sapiens; conditions: Homo sapiens, SK-UT-1
Description: SANGER: Inhibition of human SK-UT-1 cell growth in a cell viability assay.

HC-1 = assay type: functional, cell-based, Homo sapiens; conditions: Homo sapiens, HC-1
Description: SANGER: Inhibition of human HC-1 cell growth in a cell viability assay.

## CC(C)CCN1c2nc(Nc3cc(F)c(O)c(F)c3)ncc2N(C)C(=O)C1C (stereo not drawn)
A4-Fuk
  IC50: > 5 µM
A101D
  IC50: 4.97 µM
HCC1187
  IC50: > 5 µM
COLO-824
  IC50: 4.9 µM
LS-411N
  IC50: > 5 µM
MZ2-MEL
  IC50: > 5 µM
DMS-114
  IC50: 4.81 µM
KLE
  IC50: > 5 µM
SHP77
  IC50: > 5 µM
SCH
  IC50: > 5 µM
AM-38
  IC50: > 5 µM
UACC-257
  IC50: > 5 µM
SH-4
  IC50: > 5 µM
HAL-01
  IC50: > 5 µM
NCI-H1770
  IC50: > 5 µM
Mo
  IC50: > 5 µM
BB49-HNC
  IC50: > 5 µM
KM-H2
  IC50: > 5 µM
NCI-H2126
  IC50: > 5 µM
LOX IMVI
  IC50: 2.04 µM
A3-KAW
  IC50: 1.63 µM
SK-MEL-2
  IC50: > 5 µM
GR-ST
  IC50: > 5 µM
NCI-H1299
  IC50: 2.94 µM
MFM-223
  IC50: > 5 µM
MFH-ino
  IC50: > 5 µM
LB831-BLC
  IC50: 3.54 µM
DJM-1
  IC50: 4.8 µM
RPMI-8226
  IC50: > 5 µM
SBC-1
  IC50: 0.695 µM
SJSA-1
  IC50: 2.67 µM
HT
  IC50: > 5 µM
SW 962
  IC50: > 5 µM
L-428
  IC50: > 5 µM
TE-9
  IC50: 2.17 µM
HCC2218
  IC50: > 5 µM
NB12
  IC50: > 5 µM
ES4
  IC50: 1.85 µM
ONS-76
  IC50: > 5 µM
HCC 2998
  IC50: > 5 µM
NCI-N87
  IC50: > 5 µM
COR-L88
  IC50: > 5 µM
J-RT3-T3-5
  IC50: > 5 µM
SNU1
  IC50: > 5 µM
ACN
  IC50: 2.67 µM
NCI-H1838
  IC50: > 5 µM
HCC2157
  IC50: > 5 µM
SK-UT-1
  IC50: > 5 µM

## COc1cc2ncn(-c3cc(OCc4ccccc4S(C)(=O)=O)c(C#N)s3)c2cc1OC [GSK-319347A]
A4-Fuk
  IC50: > 5 µM
A101D
  IC50: > 5 µM
HCC1187
  IC50: > 5 µM
COLO-824
  IC50: > 5 µM
LS-411N
  IC50: > 5 µM
MZ2-MEL
  IC50: > 5 µM
DMS-114
  IC50: > 5 µM
SHP77
  IC50: > 5 µM
SCH
  IC50: > 5 µM
AM-38
  IC50: > 5 µM
UACC-257
  IC50: > 5 µM
SH-4
  IC50: > 5 µM
HAL-01
  IC50: > 5 µM
NCI-H1770
  IC50: > 5 µM
Mo
  IC50: > 5 µM
BB49-HNC
  IC50: > 5 µM
KM-H2
  IC50: > 5 µM
NCI-H2126
  IC50: > 5 µM
LOX IMVI
  IC50: > 5 µM
A3-KAW
  IC50: > 5 µM
SK-MEL-2
  IC50: > 5 µM
GR-ST
  IC50: > 5 µM
NCI-H1299
  IC50: > 5 µM
MFM-223
  IC50: > 5 µM
MFH-ino
  IC50: > 5 µM
LB831-BLC
  IC50: > 5 µM
DJM-1
  IC50: > 5 µM
RPMI-8226
  IC50: > 5 µM
SBC-1
  IC50: > 5 µM
SJSA-1
  IC50: > 5 µM
HT
  IC50: > 5 µM
SW 962
  IC50: > 5 µM
L-428
  IC50: > 5 µM
TE-9
  IC50: > 5 µM
HCC2218
  IC50: > 5 µM
NB12
  IC50: > 5 µM
ES4
  IC50: > 5 µM
HC-1
  IC50: > 5 µM
ONS-76
  IC50: > 5 µM
HCC 2998
  IC50: > 5 µM
NCI-N87
  IC50: > 5 µM
COR-L88
  IC50: > 5 µM
J-RT3-T3-5
  IC50: > 5 µM
SNU1
  IC50: > 5 µM
ACN
  IC50: > 5 µM
NCI-H1838
  IC50: > 5 µM
HCC2157
  IC50: > 5 µM
SK-UT-1
  IC50: > 5 µM

## CCN(CC)CCCCNc1ncc2cc(-c3cc(OC)cc(OC)c3)c(NC(=O)NC(C)(C)C)nc2n1 [PD-173074]
A4-Fuk
  IC50: > 2 µM
A101D
  IC50: > 2 µM
HCC1187
  IC50: > 2 µM
COLO-824
  IC50: > 2 µM
LS-411N
  IC50: > 2 µM
MZ2-MEL
  IC50: > 2 µM
DMS-114
  IC50: 1.37 µM
KLE
  IC50: > 2 µM
SHP77
  IC50: > 2 µM
SCH
  IC50: > 2 µM
AM-38
  IC50: > 2 µM
UACC-257
  IC50: > 2 µM
SH-4
  IC50: > 2 µM
HAL-01
  IC50: > 2 µM
NCI-H1770
  IC50: > 2 µM
Mo
  IC50: > 2 µM
BB49-HNC
  IC50: > 2 µM
KM-H2
  IC50: > 2 µM
NCI-H2126
  IC50: > 2 µM
LOX IMVI
  IC50: > 2 µM
A3-KAW
  IC50: > 2 µM
SK-MEL-2
  IC50: > 2 µM
GR-ST
  IC50: > 2 µM
NCI-H1299
  IC50: > 2 µM
MFM-223
  IC50: 0.216 µM
LB831-BLC
  IC50: > 2 µM
DJM-1
  IC50: > 2 µM
RPMI-8226
  IC50: > 2 µM
SBC-1
  IC50: > 2 µM
SJSA-1
  IC50: > 2 µM
HT
  IC50: > 2 µM
SW 962
  IC50: 0.79 µM
L-428
  IC50: > 2 µM
TE-9
  IC50: > 2 µM
HCC2218
  IC50: > 2 µM
NB12
  IC50: > 2 µM
ES4
  IC50: > 2 µM
ONS-76
  IC50: > 2 µM
HCC 2998
  IC50: > 2 µM
NCI-N87
  IC50: > 2 µM
COR-L88
  IC50: > 2 µM
J-RT3-T3-5
  IC50: > 2 µM
SNU1
  IC50: > 2 µM
ACN
  IC50: > 2 µM
NCI-H1838
  IC50: > 2 µM
HCC2157
  IC50: > 2 µM
SK-UT-1
  IC50: > 2 µM

— ChEMBL document CHEMBL1201861, “Genomics of Drug Sensitity in Cancer screening data, Wellcome Trust Sanger Institute”
